Results from ChEMBL document CHEMBL1201862, “PubChem BioAssay data set” (2004).
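Tested at 5 concentrations; 48 h exposure; 96-well plates; endpoints linearly interpolated, else capped at highest concentration. GI50 = concentration required for 50% inhibition of growth.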 Active and inactive are the calls of the source. Cut-off read from the data, not from the text of the source: active = GI50 up to about 1.1 µM and inactive = higher.

How the values were obtained:
Assay in all cases: NCI-60 cell line screen, 48 h
SK-MEL-5 = system: SK-MEL-5
NCI-H23 = system: NCI-H23
UO-31 = system: UO-31
HCC 2998 = system: HCC 2998
T47D = system: T47D
SK-OV-3 = system: SK-OV-3
U-251 = system: U-251
SF-295 = system: SF-295
DMS-273 = system: DMS-273
MDA-MB-435 = system: MDA-MB-435
MCF7 = system: MCF7
SN12C = system: SN12C
A498 = system: A498
SNB-75 = system: SNB-75
K562 = system: K562
NCI/ADR-RES = system: NCI/ADR-RES
OVCAR-5 = system: OVCAR-5
SR = system: SR
COLO 205 = system: COLO 205
ACHN = system: ACHN
OVCAR-4 = system: OVCAR-4
HOP-18 = system: HOP-18
M19-MEL = system: M19-MEL
OVCAR-8 = system: OVCAR-8
HOP-62 = system: HOP-62
SW-620 = system: SW-620
Malme-3M = system: Malme-3M
KM-20L2 = system: KM-20L2
EKVX = system: EKVX
XF498 = system: XF498
PC-3 = system: PC-3
SK-MEL-2 = system: SK-MEL-2
IGROV-1 = system: IGROV-1
HCT-15 = system: HCT-15
MDA-MB-231 = system: MDA-MB-231
KM12 = system: KM12
SF-539 = system: SF-539
RPMI-8226 = system: RPMI-8226
SK-MEL-28 = system: SK-MEL-28
SNB-19 = system: SNB-19
Hs-578T = system: Hs-578T
M14 = system: M14
DLD-1 = system: DLD-1
HL-60 = system: HL-60
SNB-78 = system: SNB-78
HT-29 = system: HT-29
UACC-257 = system: UACC-257
RXF 393 = system: RXF 393
MOLT-4 = system: MOLT-4
NCI-H460 = system: NCI-H460
HCT-116 = system: HCT-116
NCI-H522 = system: NCI-H522
OVCAR-3 = system: OVCAR-3
NCI-H226 = system: NCI-H226
MDA-N = system: MDA-N
BT-549 = system: BT-549
SF-268 = system: SF-268
DMS-114 = system: DMS-114
A549 = system: A549
786-0 = system: 786-0
UACC-62 = system: UACC-62
TK-10 = system: TK-10
HOP-92 = system: HOP-92
LOX IMVI = system: LOX IMVI
DU-145 = system: DU-145
RXF 631 = system: RXF 631
CAKI-1 = system: CAKI-1
CCRF-CEM = system: CCRF-CEM
LXFL 529 = system: LXFL 529

NC(=O)c1cccc([C@@H]2O[C@H](CO)[C@@H](O)[C@H]2O)c1
GI50 (SK-MEL-5): 32.2 µM (inactive)
GI50 (NCI-H23): 10.3 µM (inactive)
GI50 (UO-31): 5.35 µM (inactive)
GI50 (HCC 2998): 29.3 µM (inactive)
GI50 (T47D): > 35.8 µM (inactive)
GI50 (SK-OV-3): 7.21 µM (inactive)
GI50 (U-251): 11.5 µM (inactive)
GI50 (SF-295): 9.06 µM (inactive)
GI50 (DMS-273): 7.66 µM (inactive)
GI50 (MDA-MB-435): > 49.2 µM (inactive)
GI50 (MCF7): > 37.3 µM (inactive)
GI50 (SN12C): 40.4 µM (inactive)
GI50 (A498): > 100 µM (inactive)
GI50 (SNB-75): 4.18 µM (inactive)
GI50 (K562): 3.17 µM (inactive)
GI50 (NCI/ADR-RES): 6.41 µM (inactive)
GI50 (OVCAR-5): 47.4 µM (inactive)
GI50 (SR): 23.7 µM (inactive)
GI50 (COLO 205): 12.2 µM (inactive)
GI50 (ACHN): 18.2 µM (inactive)
GI50 (OVCAR-4): 5.45 µM (inactive)
GI50 (HOP-18): 26.1 µM (inactive)
GI50 (M19-MEL): 21 µM (inactive)
GI50 (OVCAR-8): 3.79 µM (inactive)
GI50 (HOP-62): 8.3 µM (inactive)
GI50 (SW-620): 7.78 µM (inactive)
GI50 (Malme-3M): > 100 µM (inactive)
GI50 (KM-20L2): 7.36 µM (inactive)
GI50 (EKVX): 68.7 µM (inactive)
GI50 (XF498): 2.05 µM (inactive)
GI50 (PC-3): 30.9 µM (inactive)
GI50 (SK-MEL-2): > 97.1 µM (inactive)
GI50 (IGROV-1): 37.8 µM (inactive)
GI50 (HCT-15): 3.37 µM
GI50 (MDA-MB-231): 77.1 µM (inactive)
GI50 (KM12): 4.09 µM (inactive)
GI50 (SF-539): 2.24 µM (inactive)
GI50 (RPMI-8226): 4.42 µM (inactive)
GI50 (SK-MEL-28): 6.98 µM (inactive)
GI50 (SNB-19): 14 µM (inactive)
GI50 (Hs-578T): 10.5 µM (inactive)
GI50 (M14): 3.2 µM (inactive)
GI50 (DLD-1): 5.46 µM (inactive)
GI50 (HL-60): 3.21 µM (inactive)
GI50 (SNB-78): 7.43 µM (inactive)
GI50 (HT-29): 16.2 µM (inactive)
GI50 (UACC-257): > 100 µM (inactive)
GI50 (RXF 393): 8.89 µM (inactive)
GI50 (MOLT-4): 1.23 µM (inactive)
GI50 (NCI-H460): 48.5 µM (inactive)
GI50 (HCT-116): 18.5 µM (inactive)
GI50 (NCI-H522): 4.14 µM (inactive)
GI50 (OVCAR-3): 18.9 µM (inactive)
GI50 (NCI-H226): 12.5 µM (inactive)
GI50 (MDA-N): 24.1 µM (inactive)
GI50 (BT-549): 14.5 µM (inactive)
GI50 (SF-268): 6.81 µM (inactive)
GI50 (DMS-114): 15.3 µM (inactive)
GI50 (A549): 27.2 µM (inactive)
GI50 (786-0): 3.72 µM (inactive)
GI50 (UACC-62): 29.1 µM (inactive)
GI50 (TK-10): 29.6 µM (inactive)
GI50 (HOP-92): 18.5 µM (inactive)
GI50 (LOX IMVI): 36 µM (inactive)
GI50 (DU-145): 30.6 µM (inactive)
GI50 (RXF 631): 12 µM (inactive)
GI50 (CAKI-1): 18.4 µM (inactive)
GI50 (CCRF-CEM): 1.33 µM (inactive)

COc1cc2c(cc1O)C1C(O)C(O)C=C3CCN(C2)C31 (centres undefined)
GI50 (SK-MEL-5): 1.46 µM (inactive)
GI50 (NCI-H23): 2.13 µM (inactive)
GI50 (UO-31): 2.77 µM (inactive)
GI50 (HCC 2998): 2.4 µM (inactive)
GI50 (SK-OV-3): 4.11 µM (inactive)
GI50 (U-251): 2.98 µM (inactive)
GI50 (SF-295): 2.31 µM (inactive)
GI50 (DMS-273): 1.95 µM (inactive)
GI50 (SN12C): 2.84 µM (inactive)
GI50 (SNB-75): 2.65 µM (inactive)
GI50 (K562): 2.51 µM (inactive)
GI50 (OVCAR-5): 4.39 µM (inactive)
GI50 (SR): 2.08 µM (inactive)
GI50 (COLO 205): 1.44 µM (inactive)
GI50 (ACHN): 1.85 µM (inactive)
GI50 (OVCAR-4): 1.38 µM (inactive)
GI50 (HOP-18): 2.43 µM (inactive)
GI50 (M19-MEL): 2.72 µM (inactive)
GI50 (OVCAR-8): 2.05 µM (inactive)
GI50 (HOP-62): 2.92 µM (inactive)
GI50 (SW-620): 2.49 µM (inactive)
GI50 (Malme-3M): 0.587 µM (active)
GI50 (KM-20L2): 2.34 µM (inactive)
GI50 (EKVX): 3.84 µM (inactive)
GI50 (XF498): 1.36 µM (inactive)
GI50 (SK-MEL-2): 1.83 µM (inactive)
GI50 (IGROV-1): 2.74 µM (inactive)
GI50 (HCT-15): 3.61 µM
GI50 (KM12): 2.05 µM (inactive)
GI50 (SF-539): 2.09 µM (inactive)
GI50 (RPMI-8226): 3.58 µM (inactive)
GI50 (SK-MEL-28): 2.76 µM (inactive)
GI50 (SNB-19): 1.39 µM (inactive)
GI50 (M14): 1.79 µM (inactive)
GI50 (DLD-1): 2.47 µM (inactive)
GI50 (HL-60): 2.66 µM (inactive)
GI50 (SNB-78): 0.565 µM (active)
GI50 (HT-29): 3.17 µM (inactive)
GI50 (UACC-257): 2.67 µM (inactive)
GI50 (RXF 393): 1.45 µM (inactive)
GI50 (MOLT-4): 3.15 µM (inactive)
GI50 (NCI-H460): 1.83 µM (inactive)
GI50 (HCT-116): 0.158 µM (active)
GI50 (NCI-H522): 1.8 µM (inactive)
GI50 (OVCAR-3): 2.67 µM (inactive)
GI50 (NCI-H226): 2.55 µM (inactive)
GI50 (SF-268): 2.2 µM (inactive)
GI50 (DMS-114): 1.09 µM (active)
GI50 (A549): 2.11 µM (inactive)
GI50 (786-0): 2.39 µM (inactive)
GI50 (UACC-62): 1.69 µM (inactive)
GI50 (TK-10): 2.65 µM (inactive)
GI50 (HOP-92): 1.16 µM (inactive)
GI50 (LOX IMVI): 0.76 µM (active)
GI50 (LXFL 529): 3.18 µM (inactive)
GI50 (RXF 631): 2.97 µM (inactive)
GI50 (CAKI-1): 1.9 µM (inactive)
GI50 (CCRF-CEM): 3.65 µM (inactive)

O=[N+]([O-])c1ccc(COc2cccc3cccnc23)cc1
GI50 (SK-MEL-5): 17.1 µM (inactive)
GI50 (NCI-H23): 20 µM (inactive)
GI50 (UO-31): 10.1 µM (inactive)
GI50 (HCC 2998): 22.3 µM (inactive)
GI50 (SK-OV-3): 32.3 µM (inactive)
GI50 (U-251): 10 µM (inactive)
GI50 (SF-295): 26.6 µM (inactive)
GI50 (DMS-273): 4.53 µM (inactive)
GI50 (SN12C): 22.6 µM (inactive)
GI50 (A498): 34.8 µM (inactive)
GI50 (SNB-75): 26.9 µM (inactive)
GI50 (K562): 11.3 µM (inactive)
GI50 (OVCAR-5): 38.5 µM (inactive)
GI50 (SR): 3.47 µM (inactive)
GI50 (COLO 205): 17.2 µM (inactive)
GI50 (ACHN): 19.6 µM (inactive)
GI50 (OVCAR-4): 12.4 µM (inactive)
GI50 (HOP-18): 31.5 µM (inactive)
GI50 (M19-MEL): 15.1 µM (inactive)
GI50 (OVCAR-8): 20.5 µM (inactive)
GI50 (HOP-62): 30 µM (inactive)
GI50 (Malme-3M): 33 µM (inactive)
GI50 (KM-20L2): 33.3 µM (inactive)
GI50 (EKVX): 18.9 µM (inactive)
GI50 (XF498): 19.9 µM (inactive)
GI50 (SK-MEL-2): 14.6 µM (inactive)
GI50 (IGROV-1): 22.5 µM (inactive)
GI50 (HCT-15): 7.1 µM
GI50 (KM12): 23.8 µM (inactive)
GI50 (SF-539): 29.6 µM (inactive)
GI50 (RPMI-8226): 13 µM (inactive)
GI50 (SK-MEL-28): 14.8 µM (inactive)
GI50 (SNB-19): 27.4 µM (inactive)
GI50 (M14): 10.6 µM (inactive)
GI50 (DLD-1): 13.9 µM (inactive)
GI50 (HL-60): 5.69 µM (inactive)
GI50 (SNB-78): 38.2 µM (inactive)
GI50 (HT-29): 31.6 µM (inactive)
GI50 (UACC-257): 20.2 µM (inactive)
GI50 (RXF 393): 43.5 µM (inactive)
GI50 (MOLT-4): 4.98 µM (inactive)
GI50 (NCI-H460): 1.23 µM (inactive)
GI50 (HCT-116): 25.2 µM (inactive)
GI50 (NCI-H522): 4.53 µM (inactive)
GI50 (OVCAR-3): 5.94 µM (inactive)
GI50 (NCI-H226): 18.7 µM (inactive)
GI50 (SF-268): 19.9 µM (inactive)
GI50 (DMS-114): 2.19 µM (inactive)
GI50 (A549): 31 µM (inactive)
GI50 (786-0): 17.2 µM (inactive)
GI50 (UACC-62): 17.3 µM (inactive)
GI50 (TK-10): 15.8 µM (inactive)
GI50 (HOP-92): 31 µM (inactive)
GI50 (LOX IMVI): 11.7 µM (inactive)
GI50 (LXFL 529): 23.5 µM (inactive)
GI50 (RXF 631): 13.9 µM (inactive)
GI50 (CAKI-1): 30.3 µM (inactive)
GI50 (CCRF-CEM): 3.94 µM (inactive)
